ChEMBL document CHEMBL1201862, “PubChem BioAssay data set” (2004)
The source made the active and inactive calls.

How the values were obtained:
[1] = A Cell Based Secondary Assay To Explore Cytotoxicity of Compounds that Sensitize Mycobacterium Tuberculosis to Beta-Lactam Antibiotics.; assay type: functional
HT-1080 = assay: cytotoxicity in HT1080 fibrosarcoma cells, cell-based, fluorescence readout (AID 620); assay type: functional; settings: Homo sapiens
[2] = target: Luciferin 4-monooxygenase (Photinus pyralis, UniProt P08659); assay: Counter Screen for Luciferase-based Assay Positives. [Related pubchem assays: 620, 618, 411 ]
Luciferin 4-monooxygenase, sequence (P08659 whole entry): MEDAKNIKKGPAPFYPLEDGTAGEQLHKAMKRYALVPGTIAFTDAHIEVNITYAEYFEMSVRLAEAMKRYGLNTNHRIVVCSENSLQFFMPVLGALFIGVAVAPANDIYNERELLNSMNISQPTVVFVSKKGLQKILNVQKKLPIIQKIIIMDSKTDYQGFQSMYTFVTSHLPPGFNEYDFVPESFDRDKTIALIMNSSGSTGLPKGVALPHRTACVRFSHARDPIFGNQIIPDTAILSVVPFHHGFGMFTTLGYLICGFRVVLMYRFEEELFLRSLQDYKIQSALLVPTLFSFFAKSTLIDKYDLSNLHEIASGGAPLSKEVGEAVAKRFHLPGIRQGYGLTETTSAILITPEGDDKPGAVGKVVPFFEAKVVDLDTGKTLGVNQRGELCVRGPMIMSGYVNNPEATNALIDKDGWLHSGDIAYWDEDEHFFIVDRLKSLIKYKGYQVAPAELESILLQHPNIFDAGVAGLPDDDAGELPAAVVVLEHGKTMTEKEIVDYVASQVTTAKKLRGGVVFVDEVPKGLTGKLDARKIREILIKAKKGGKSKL

cells = assay type: functional, cell-based
[3] = target: T1, Nuclear receptor subfamily 0 group B member 1 (Homo sapiens, UniProt P51843); assay type: functional, cell-based;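 note: HEK293T cells transfected with SF-1 and DAX-1 plus StAR promoter luciferase reporter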
T1 sequence (P51843 whole entry): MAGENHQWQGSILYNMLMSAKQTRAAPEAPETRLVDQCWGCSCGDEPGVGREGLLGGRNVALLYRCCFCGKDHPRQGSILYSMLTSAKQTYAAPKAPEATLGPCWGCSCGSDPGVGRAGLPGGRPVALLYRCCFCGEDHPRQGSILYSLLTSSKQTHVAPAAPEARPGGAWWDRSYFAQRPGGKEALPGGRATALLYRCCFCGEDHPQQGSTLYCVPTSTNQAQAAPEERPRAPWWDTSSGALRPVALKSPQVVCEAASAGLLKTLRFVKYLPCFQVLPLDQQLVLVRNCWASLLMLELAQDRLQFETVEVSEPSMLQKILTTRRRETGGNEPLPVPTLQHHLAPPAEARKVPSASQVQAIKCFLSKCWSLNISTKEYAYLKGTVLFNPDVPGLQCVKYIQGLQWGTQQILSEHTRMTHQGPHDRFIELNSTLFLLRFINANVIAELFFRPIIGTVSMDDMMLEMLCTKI

[4] = MC4R antagonists, dose response, counter-screen for LGR2 antagonist project, cell-based, plate reader, cherry pick (AID 743444); assay type: functional;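 note: transfected HEK 293 cells stimulated with alpha-MSH peptide; potency of inhibitors of the alpha-MSH evoked signal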
[5] = LGR2 antagonists, dose response, cell-based, HEK293, CRE-luciferase reporter, cherry pick, set 2 (AID 743343); assay type: functional;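 note: transfected cells were stimulated with diluted bursicon conditioned medium after compound addition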
[6] = target: Peroxisome proliferator-activated receptor gamma/Nuclear receptor coactivator 2 (Homo sapiens, UniProt P37231); assay type: functional;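 note: agonist potency for raising coactivator recruitment to the receptor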
[7] = inhibitors of firefly luciferase expression or activity, dose response, H4 neuroglioma cells, luminescence (AID 1990); assay type: functional, cell-based
[8] = target: Peroxisome proliferator-activated receptor gamma/Nuclear receptor coactivator 1 (Homo sapiens, UniProt P37231); assay type: functional;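 note: agonist potency as compounds enhance coactivator SRC-1 recruitment to PPARgamma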
Peroxisome proliferator-activated receptor gamma/Nuclear receptor coactivator 1, sequence (P37231 whole entry): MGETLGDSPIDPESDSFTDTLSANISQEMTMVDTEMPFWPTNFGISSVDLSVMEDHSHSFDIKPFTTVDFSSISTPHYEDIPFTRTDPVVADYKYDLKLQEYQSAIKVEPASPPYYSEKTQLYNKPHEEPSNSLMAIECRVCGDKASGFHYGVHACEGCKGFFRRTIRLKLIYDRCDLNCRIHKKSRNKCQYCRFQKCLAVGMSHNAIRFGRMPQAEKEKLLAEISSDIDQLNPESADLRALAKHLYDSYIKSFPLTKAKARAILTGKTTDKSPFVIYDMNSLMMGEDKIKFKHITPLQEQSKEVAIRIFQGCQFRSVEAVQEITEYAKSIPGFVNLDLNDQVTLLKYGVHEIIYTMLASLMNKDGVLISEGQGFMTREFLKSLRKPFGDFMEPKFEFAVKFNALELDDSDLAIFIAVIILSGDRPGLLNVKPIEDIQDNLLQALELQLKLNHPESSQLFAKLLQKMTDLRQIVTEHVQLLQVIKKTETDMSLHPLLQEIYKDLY
Peroxisome proliferator-activated receptor gamma/Nuclear receptor coactivator 1, sequence (Q15788 whole entry, further chain): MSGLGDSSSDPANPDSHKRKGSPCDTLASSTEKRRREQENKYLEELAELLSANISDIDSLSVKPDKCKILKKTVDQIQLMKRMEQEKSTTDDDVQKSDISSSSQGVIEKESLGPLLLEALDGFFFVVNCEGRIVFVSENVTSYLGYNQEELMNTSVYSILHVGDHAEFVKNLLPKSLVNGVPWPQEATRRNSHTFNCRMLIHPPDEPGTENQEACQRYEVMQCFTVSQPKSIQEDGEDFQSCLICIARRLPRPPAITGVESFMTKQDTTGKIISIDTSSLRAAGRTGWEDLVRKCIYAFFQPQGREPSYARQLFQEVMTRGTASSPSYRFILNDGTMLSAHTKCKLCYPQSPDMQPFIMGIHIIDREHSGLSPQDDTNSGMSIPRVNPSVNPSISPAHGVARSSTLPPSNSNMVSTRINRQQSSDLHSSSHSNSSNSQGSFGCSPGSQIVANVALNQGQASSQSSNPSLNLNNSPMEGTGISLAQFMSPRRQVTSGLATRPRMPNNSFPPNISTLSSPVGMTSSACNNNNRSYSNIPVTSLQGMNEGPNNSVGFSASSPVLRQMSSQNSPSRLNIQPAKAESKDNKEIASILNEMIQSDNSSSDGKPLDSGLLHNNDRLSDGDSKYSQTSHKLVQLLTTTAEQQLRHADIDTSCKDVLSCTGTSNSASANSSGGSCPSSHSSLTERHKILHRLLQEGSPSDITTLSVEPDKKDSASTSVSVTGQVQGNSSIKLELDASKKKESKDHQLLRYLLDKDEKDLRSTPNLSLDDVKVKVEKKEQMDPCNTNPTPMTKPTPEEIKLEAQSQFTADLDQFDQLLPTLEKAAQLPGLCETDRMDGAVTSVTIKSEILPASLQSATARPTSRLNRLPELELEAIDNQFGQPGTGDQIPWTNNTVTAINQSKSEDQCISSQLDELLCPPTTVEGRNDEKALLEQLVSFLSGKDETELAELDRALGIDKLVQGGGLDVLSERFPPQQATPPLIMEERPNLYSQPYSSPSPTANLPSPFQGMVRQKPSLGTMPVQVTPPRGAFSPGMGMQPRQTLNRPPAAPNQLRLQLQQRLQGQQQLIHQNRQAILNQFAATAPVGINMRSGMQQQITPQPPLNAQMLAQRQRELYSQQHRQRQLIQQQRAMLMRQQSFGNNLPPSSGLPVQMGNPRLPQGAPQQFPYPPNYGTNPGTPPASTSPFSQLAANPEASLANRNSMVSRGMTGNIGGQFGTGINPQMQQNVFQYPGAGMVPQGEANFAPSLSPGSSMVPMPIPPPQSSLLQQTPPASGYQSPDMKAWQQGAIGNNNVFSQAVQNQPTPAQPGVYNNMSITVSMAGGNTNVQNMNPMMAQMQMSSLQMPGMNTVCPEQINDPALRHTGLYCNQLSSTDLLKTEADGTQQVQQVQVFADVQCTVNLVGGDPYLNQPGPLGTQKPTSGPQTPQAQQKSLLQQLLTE

[9] = inhibitors of SNCA 5'UTR-driven reporter translation, confirmation, H4 neuroglioma cells, luminescence (AID 1988); assay type: functional, cell-based
[10] = target: Peroxisome proliferator-activated receptor gamma/Nuclear receptor coactivator 3 (Homo sapiens, UniProt P37231); assay type: functional;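 note: agonist potency for raising coactivator recruitment to the receptor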
Procathepsin L = Procathepsin L (Homo sapiens, UniProt P07711)
Procathepsin L, sequence (P07711 whole entry): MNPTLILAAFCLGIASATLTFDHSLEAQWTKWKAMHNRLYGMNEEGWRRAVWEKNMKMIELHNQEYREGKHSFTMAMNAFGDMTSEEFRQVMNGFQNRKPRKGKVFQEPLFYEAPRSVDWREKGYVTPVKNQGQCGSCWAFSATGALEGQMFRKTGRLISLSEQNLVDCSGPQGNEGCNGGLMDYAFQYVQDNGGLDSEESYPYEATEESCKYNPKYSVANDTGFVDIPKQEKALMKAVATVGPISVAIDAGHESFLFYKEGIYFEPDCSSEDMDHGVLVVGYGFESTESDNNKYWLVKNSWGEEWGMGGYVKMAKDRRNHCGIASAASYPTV

Aspartyl aminopeptidase = Aspartyl aminopeptidase (Plasmodium falciparum 3D7, UniProt Q8I2J3)
Aspartyl aminopeptidase, sequence (Q8I2J3 whole entry): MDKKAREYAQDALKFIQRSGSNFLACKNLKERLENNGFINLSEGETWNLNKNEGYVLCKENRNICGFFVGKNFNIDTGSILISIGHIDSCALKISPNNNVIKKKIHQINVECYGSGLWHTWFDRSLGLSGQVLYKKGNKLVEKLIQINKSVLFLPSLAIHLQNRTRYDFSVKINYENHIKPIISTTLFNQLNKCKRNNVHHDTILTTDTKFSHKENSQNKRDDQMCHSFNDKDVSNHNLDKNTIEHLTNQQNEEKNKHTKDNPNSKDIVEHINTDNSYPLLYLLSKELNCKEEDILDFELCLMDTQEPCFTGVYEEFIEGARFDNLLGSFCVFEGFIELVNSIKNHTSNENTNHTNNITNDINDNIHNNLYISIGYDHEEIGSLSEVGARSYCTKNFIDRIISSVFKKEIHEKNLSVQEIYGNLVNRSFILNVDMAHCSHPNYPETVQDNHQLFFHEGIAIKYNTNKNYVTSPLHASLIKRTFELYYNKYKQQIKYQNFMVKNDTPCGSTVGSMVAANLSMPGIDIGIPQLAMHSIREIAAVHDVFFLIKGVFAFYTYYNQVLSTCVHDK

[11] = target: T2, Dual specificity protein phosphatase 6 (Rattus norvegicus, UniProt Q64346)
T2 sequence (Q64346 whole entry): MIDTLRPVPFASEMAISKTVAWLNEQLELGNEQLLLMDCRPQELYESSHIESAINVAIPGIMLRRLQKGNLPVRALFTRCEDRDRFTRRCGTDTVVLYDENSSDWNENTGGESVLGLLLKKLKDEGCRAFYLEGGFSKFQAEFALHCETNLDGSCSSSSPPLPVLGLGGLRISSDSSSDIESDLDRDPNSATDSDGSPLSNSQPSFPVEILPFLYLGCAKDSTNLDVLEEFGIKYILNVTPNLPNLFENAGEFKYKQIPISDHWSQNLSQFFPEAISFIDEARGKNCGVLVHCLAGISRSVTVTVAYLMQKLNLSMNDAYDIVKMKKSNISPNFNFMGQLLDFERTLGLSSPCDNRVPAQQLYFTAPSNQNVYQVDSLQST

[12] = target: T3, Tyrosine-protein phosphatase non-receptor type 7 (Homo sapiens, UniProt P35236); assay type: functional
T3 sequence (P35236 whole entry): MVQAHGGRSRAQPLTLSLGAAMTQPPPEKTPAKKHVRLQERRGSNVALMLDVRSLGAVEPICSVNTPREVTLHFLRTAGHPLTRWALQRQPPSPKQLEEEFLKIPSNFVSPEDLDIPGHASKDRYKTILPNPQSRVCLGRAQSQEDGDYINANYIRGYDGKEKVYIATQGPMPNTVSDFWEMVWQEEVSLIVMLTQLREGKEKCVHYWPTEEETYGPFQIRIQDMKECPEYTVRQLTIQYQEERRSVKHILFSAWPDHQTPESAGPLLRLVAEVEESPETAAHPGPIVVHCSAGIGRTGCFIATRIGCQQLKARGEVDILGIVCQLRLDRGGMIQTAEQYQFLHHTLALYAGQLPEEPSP

[13] = target: T2, Dual specificity protein phosphatase 6; assay type: functional
[14] = target: Glyceraldehyde-3-phosphate dehydrogenase (Homo sapiens, UniProt P04406)
[15] = target: 5-hydroxytryptamine receptor 2A (Mus musculus, UniProt P35363); assay type: functional, cell-based;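 note: CHO-K1 cells with tagged receptor and beta-arrestin; agonist potency measured as compound-induced activation of the receptor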
Streptococcus = assay: Group A Streptococcus viability loss, dose response, counter-screen for streptokinase expression inhibitor project, luminescence, BacTiterGlo (AID 1915); assay type: functional, organism-based;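 note: potency for reduction of bacterial viability or growth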
Mu-type opioid receptor = Mu-type opioid receptor (Homo sapiens, UniProt P35372); assay type: functional, cell-based;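 note: U2OS cells with beta-arrestin recruitment to OPRM1 by beta-gal complementation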
Mu-type opioid receptor, sequence (P35372 whole entry): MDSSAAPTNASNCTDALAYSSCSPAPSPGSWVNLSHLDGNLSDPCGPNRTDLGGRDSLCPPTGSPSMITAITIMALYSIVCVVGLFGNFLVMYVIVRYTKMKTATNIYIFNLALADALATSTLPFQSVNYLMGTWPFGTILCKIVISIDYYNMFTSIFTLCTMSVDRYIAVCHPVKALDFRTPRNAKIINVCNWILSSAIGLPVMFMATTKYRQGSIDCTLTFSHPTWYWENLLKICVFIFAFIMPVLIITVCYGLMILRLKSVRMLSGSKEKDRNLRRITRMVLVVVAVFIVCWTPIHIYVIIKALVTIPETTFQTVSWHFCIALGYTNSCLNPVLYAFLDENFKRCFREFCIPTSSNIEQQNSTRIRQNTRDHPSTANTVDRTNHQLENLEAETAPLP

Streptokinase A = target: T4, Streptokinase A (Streptococcus pyogenes serotype M1, UniProt P10520); assay: S. pyogenes streptokinase expression inhibitors, potency, dose response, plasminogen activation absorbance, OD405 (AID 1914); assay type: functional, Streptococcus pyogenes M1 GAS;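 note: secreted streptokinase activity via plasminogen activation per viability signal from cell pellet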
T4 sequence (P10520 whole entry): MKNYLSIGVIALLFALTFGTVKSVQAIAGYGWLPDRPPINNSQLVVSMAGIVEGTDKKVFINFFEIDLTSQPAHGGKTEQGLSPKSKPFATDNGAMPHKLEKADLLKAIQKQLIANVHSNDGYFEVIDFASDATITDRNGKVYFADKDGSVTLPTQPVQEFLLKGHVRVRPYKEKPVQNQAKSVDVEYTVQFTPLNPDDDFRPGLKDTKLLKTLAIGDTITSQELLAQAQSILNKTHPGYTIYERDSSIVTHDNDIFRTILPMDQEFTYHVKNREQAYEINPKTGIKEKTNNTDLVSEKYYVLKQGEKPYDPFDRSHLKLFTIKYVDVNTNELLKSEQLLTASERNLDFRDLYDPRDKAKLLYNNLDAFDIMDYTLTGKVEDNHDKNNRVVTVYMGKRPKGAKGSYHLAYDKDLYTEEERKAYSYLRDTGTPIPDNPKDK

X-box-binding protein 1 = X-box-binding protein 1 (Homo sapiens, UniProt P17861); assay type: functional, Cricetulus griseus;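 note: confirmatory dose-response counter-screen serving a CHOP assay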
X-box-binding protein 1, sequence (P17861 whole entry): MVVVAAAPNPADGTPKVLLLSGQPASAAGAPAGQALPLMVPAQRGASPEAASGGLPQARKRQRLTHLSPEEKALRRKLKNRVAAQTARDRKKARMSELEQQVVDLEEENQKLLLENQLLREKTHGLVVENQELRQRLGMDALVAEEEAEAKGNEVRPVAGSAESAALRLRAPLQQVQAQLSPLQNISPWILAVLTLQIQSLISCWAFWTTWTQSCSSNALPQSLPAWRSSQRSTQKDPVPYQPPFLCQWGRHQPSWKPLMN

[16] = system: Streptococcus sp. 'group A'; assay: growth inhibition of control SK(-) GAS strain, dose response, counter-screen for streptokinase expression inhibitor project, luminescence, kanamycin, BacTiterGlo, confirmation (AID 1900); assay type: functional, organism-based
[17] = target: Eukaryotic translation initiation factor 4E (Mus musculus, UniProt P63073); assay: eIF4E–eIF4G protein interaction inhibitors, dose response, biochemical, TR-FRET (AID 855); assay type: functional;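 note: potency for disrupting eIF4E binding to eIF4GI seen as loss of FRET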
Eukaryotic translation initiation factor 4E, sequence (P63073 whole entry): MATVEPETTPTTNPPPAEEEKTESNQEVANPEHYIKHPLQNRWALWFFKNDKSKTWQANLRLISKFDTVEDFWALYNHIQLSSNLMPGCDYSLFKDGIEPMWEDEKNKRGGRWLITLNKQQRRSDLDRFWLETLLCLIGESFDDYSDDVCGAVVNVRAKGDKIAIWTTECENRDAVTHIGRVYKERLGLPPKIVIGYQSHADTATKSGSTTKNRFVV

[18] = target: Acyl-homoserine lactone acylase PvdQ (Pseudomonas aeruginosa (strain LESB58), UniProt Q9I194); assay: P. aeruginosa PvdQ acylase inhibitors, dose response, biochemical, fluorescence, plate reader and imaging, cherry-picks (AID 493231)
Acyl-homoserine lactone acylase PvdQ, sequence (Q9I194 24-193 limits assumed): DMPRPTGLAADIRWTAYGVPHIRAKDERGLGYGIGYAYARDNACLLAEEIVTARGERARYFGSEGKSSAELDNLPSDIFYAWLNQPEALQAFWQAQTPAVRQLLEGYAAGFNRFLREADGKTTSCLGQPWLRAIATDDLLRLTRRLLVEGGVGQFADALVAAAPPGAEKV
Acyl-homoserine lactone acylase PvdQ, sequence (Q9I194 217-762 limits assumed): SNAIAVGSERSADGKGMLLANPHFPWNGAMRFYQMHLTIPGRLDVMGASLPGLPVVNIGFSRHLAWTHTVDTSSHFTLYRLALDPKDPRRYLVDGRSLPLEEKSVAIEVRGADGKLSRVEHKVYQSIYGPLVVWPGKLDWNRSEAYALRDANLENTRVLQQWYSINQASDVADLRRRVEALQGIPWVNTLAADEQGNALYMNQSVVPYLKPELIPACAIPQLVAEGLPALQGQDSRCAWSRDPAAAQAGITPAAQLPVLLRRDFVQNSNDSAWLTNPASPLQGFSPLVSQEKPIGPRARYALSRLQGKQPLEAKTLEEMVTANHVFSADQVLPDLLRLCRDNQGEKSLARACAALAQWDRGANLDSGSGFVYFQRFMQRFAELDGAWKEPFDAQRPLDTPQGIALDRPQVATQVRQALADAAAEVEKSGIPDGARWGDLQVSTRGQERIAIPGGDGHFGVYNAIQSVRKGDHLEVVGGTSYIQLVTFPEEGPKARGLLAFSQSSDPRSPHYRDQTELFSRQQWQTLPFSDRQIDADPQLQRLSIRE

[19] = Luminescence Cell-Based Dose Response HTS to Identify Activators of Luciferase Translation or Activity in H4 […] Cells. [Related pubchem assays: 1829 (Project Summary), 1814 (Primary HTS)]; assay type: functional
H4 = assay: Luminescence Cell-Based Dose Response HTS to Identify Activators of 5'UTR Stem-Loop Driven Prion Protein mRNA Translation in H4 Neuroglioblastoma Cells. [Related pubchem assays: 1829 (Project Summary), 1814 (Primary HTS)]; assay type: functional; settings: Homo sapiens
[20] = Luminescence Cell-Based Dose Confirmation HTS to Identify Activators of 5'UTR Stem-Loop Driven Alpha-Synuclein mRNA Translation in H4 Neuroglioblastoma Cells. [Related pubchem assays: 1829 (Project Summary), 1814 (Primary HTS)]; assay type: functional
Cytochrome P450 1A2 = target: T5, Cytochrome P450 1A2 (Homo sapiens, UniProt P05177);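 note: PubChem cytochrome P450 panel assay, CYP1A2 panel member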
T5 sequence (P05177 whole entry): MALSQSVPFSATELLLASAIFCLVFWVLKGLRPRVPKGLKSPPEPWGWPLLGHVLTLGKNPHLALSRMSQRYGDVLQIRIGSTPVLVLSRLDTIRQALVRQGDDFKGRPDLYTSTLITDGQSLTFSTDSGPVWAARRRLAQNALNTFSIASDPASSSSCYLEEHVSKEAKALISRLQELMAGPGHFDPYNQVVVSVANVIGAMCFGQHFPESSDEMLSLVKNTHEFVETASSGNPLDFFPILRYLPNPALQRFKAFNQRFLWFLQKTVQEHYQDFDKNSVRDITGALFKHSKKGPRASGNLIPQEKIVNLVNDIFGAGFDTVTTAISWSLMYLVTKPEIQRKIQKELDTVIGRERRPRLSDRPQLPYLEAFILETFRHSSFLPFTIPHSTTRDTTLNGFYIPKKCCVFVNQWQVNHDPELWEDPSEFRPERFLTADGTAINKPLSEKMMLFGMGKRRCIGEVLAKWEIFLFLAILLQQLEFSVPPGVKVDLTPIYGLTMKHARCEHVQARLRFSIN

Cytochrome P450 2C19 = Cytochrome P450 2C19 (Homo sapiens, UniProt P33261); assay: Cytochrome panel assay with activity outcomes. Panel member name: p450-cyp2c19 Compounds with AC50 equal or less than 10 uM are considered active; assay type: functional; settings: read-out: AC50
[21] = target: T6, Heat shock factor protein 1 (Mus musculus, UniProt P38532); assay: inhibition of MG132-induced HSE-luciferase signal, confirmation, cell-based, NIH3T3, luminescence, dose retest (AID 2382); assay type: functional;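 note: NIH3T3 fibroblasts with HSF1-driven luciferase reporter stressed by proteasome inhibitor MG132; luminescence from HSF1-driven luciferase expression after 8 hours of MG132 stress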
T6 sequence (P38532 whole entry): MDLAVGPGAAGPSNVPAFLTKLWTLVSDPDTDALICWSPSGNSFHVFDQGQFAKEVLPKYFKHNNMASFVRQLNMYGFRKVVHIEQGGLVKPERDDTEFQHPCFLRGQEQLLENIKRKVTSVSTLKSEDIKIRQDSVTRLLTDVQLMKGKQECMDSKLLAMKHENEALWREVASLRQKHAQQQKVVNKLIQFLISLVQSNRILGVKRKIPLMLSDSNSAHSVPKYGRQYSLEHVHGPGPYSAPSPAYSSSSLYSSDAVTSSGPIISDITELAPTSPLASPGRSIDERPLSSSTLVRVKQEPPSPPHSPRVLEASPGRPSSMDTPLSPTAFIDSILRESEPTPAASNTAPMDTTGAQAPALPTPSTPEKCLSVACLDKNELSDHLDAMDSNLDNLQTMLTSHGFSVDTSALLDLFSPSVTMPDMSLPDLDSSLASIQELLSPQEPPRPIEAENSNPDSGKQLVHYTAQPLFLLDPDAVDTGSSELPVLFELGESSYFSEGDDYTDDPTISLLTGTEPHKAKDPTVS

For `CS(=O)(=O)N(Cc1ccccc1)c1ccc(C(=O)N2CCN(c3cccc(Cl)c3)CC2)cc1`, the CC50 [1] was > 40 µM (active).
With `Cc1ccccc1NC(=O)c1cnc2ccccn2c1=O` the EC50 (HT-1080) was > 50 µM (not active) and the EC50 [2] was 46.4 µM (active).
In the case of `CC(C)Nc1ncnc2c1cnn2-c1ccc(Cl)cc1`, the EC50 (HT-1080) is reported as > 50 µM (not active), the IC50 (cells) is reported as > 67.5 µM (inactive) and the EC50 [2] is reported as 15.3 µM (active). The IC50 [3] was > 67.5 µM (inactive), the AC50 [4] was 13.3 µM (active) and the AC50 [5] was 11.9 µM (active).
With `O=C(C1=C[C@@H](c2ccc(Br)cc2)C[C@@H](OCCCCO)O1)N1CCN(Cc2ccc3c(c2)OCO3)CC1` the EC50 [6] was > 79.4 µM (not active), the EC50 [7] was 16.3 µM (active) and the EC50 [8] was > 79.4 µM (not active). For the same molecule, the EC50 [9] was 20.5 µM (active) and the EC50 [10] was > 79.4 µM (not active).
With `O=C(Nc1ccc(Br)cc1Cl)Nn1cnnc1` the IC50 (Procathepsin L) was > 59.6 µM (not active) and the IC50 (Aspartyl aminopeptidase) was 711 nM (active).
For `O=C(O)CSc1nnc[nH]1`, the IC50 (Procathepsin L) was > 59.6 µM (not active) and the IC50 (Aspartyl aminopeptidase) was 202 nM (active).
In the case of `Cc1ccc2c(c1)NC(C(=O)O)NS2(=O)=O` (centres undefined), the IC50 [11] is reported as 52.5 µM (active), the IC50 [12] is reported as 3.35 µM (active) and the IC50 [13] is reported as 56.9 µM (active). The IC50 [14] was > 100 µM (not active).
With `Cc1ccc(Nc2nc(N)nc(CN3CCN(c4ccccc4)CC3)n2)cc1Cl` the EC50 [15] was 76.1 µM (inactive), the EC50 (Streptococcus) was 111 µM (active) and the EC50 (Mu-type opioid receptor) was 92.5 µM (inactive). The EC50 (Streptokinase A) was > 150 µM (not active), the “Absolute IC50 (XBP1)” value (X-box-binding protein 1) was 10 µM and the EC50 [16] was 8.53 µM (active).
With `C=CCn1c(N)cc(=O)nc1SCC(=O)Nc1cccc2ccccc12` the IC50 [17] was > 64 µM (inactive).
In the case of `N#Cc1cccnc1Nc1ccc(Cl)cc1`, the AC50 [18] is reported as 14.2 µM (active).
With `CCCOc1ccc(C(=O)CCC(=O)OCC(=O)Nc2cccc(S(N)(=O)=O)c2)cc1` the AC50 [18] was > 100 µM (inactive).
With `O=C(Oc1oc(-c2ccco2)nc1/C=N/c1ccc(Cl)cc1)c1ccco1` the EC50 [19] was 21.7 µM (active), the EC50 (H4) was 31.7 µM (active) and the EC50 [20] was 14.3 µM (active). For the same molecule, the CC50 [1] was > 40 µM (active), the AC50 (Cytochrome P450 1A2) was 15.8 µM (inconclusive) and the AC50 (Cytochrome P450 2C19) was 14.1 µM (inconclusive).
For `Cc1cc(C)c2c(c1)/C(=N/NS(=O)(=O)c1ccc(Br)cc1)CCC2`, the “Absolute IC50 (XBP1)” value (X-box-binding protein 1) was 10 µM and the EC50 [21] was > 195 µM (not active).
